From patent publication US7208517B1, “Endothelin antagonists” (Abbott Labortories, priority 1994, dated 2007)
≈ marks a conversion by molar mass, not a printed value.

Tests used:
ETA Receptor = molecular target: T1, ETA Receptor (Rattus norvegicus, UniProt P26684); assay: [125I]ET-1 binding to membranes from MMQ cells (ETA receptor binding assay, Table 4); settings: test compound at 1 μM; 0.1 nM [125I]ET-1, MMQ cell membranes, 4 hours at 25° C.; read-out: % Inhibition of ETA at 1 μM
T1 construct: endogenous in cells; host or cells: MMQ rat pituitary cells (membranes)
T1 sequence (P26684 21-426): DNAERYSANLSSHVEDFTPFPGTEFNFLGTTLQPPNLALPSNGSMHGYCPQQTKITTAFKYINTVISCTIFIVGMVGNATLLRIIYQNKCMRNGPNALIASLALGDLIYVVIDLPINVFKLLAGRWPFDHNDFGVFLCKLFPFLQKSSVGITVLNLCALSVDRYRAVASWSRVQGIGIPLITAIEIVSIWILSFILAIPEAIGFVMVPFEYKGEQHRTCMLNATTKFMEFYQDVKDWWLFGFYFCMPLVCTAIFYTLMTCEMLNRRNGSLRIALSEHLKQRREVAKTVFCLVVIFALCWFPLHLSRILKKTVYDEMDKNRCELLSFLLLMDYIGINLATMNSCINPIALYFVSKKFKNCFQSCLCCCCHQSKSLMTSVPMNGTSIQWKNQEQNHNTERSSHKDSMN

[1] = molecular target: T2, ETB receptors of porcine cerebellar tissues (pET-B) (Sus scrofa, UniProt P35463); assay: ETA/ETB selectivity: (125I)ET-3 competition binding, ETB assay in porcine cerebellum membranes (pET-B); settings: porcine cerebellum membranes; 0.1 nM (125I)ET-3; read-out: pET-B IC50
T2 construct: porcine cerebellar tissues (known to contain ETB receptors); from tissue; host or cells: porcine cerebellum (membranes)
T2 sequence (P35463 27-443): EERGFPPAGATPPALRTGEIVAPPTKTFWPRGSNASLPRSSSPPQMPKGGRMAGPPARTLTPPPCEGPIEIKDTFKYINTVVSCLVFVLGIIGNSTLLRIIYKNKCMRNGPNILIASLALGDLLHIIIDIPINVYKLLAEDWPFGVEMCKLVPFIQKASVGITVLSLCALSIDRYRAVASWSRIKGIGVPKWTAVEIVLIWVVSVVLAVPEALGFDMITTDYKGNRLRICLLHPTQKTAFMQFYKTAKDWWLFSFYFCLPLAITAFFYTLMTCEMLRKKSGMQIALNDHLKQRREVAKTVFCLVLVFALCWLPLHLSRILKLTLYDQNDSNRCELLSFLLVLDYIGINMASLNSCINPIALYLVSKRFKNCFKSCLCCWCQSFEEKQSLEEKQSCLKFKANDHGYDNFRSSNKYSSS

[2] = pH-solubility profile: maximum solubility in aqueous media at varying pH; type: physicochemical; settings: aqueous buffer
From the text: Such increased aqueous solubility, coupled with the enhanced potency resulting from decreased protein binding, might make such compounds preferred for development as parenteral agents.

[3] = system: male subjects with hormone refractory prostate cancer; assay: Crosslinked N-telopeptide levels of treated subjects; type: in vivo, human; settings: subjects treated versus placebo
Experimental: Studies were performed on male subjects with asymptomatic hormone refractory prostate cancer with rising PSA levels and on male subjects with symptomatic hormone refractory prostate cancer with rising PSA levels and pain. Subjects in the phase II studies had castrate levels of testosterone, either due to pharmacologic intervention, via leuprolide (Lupron®) or goserelin (Zoladex®), or via surgical castration. Subjects received ABT-627 or placebo. The following tests were conducted:
ABT-627 was formulated in 2.5 and 10 mg doses. An oral liquid formulation of ABT-627 was also prepared as follows: 1 mg/ml ABT-627, 50% glycerin, 14% alcohol, and water. Matching placebos were also provided.
Markers of osteoblastic activity were assessed using […]. Bone markers include bone alkaline phosphatase (BAP), deoxypridinoline, and N-telopeptide of Type I collagen. Blood samples were collected prior to dosing on Day 1, Day 42, Day 84, Day 168, and every 28 days after Day 168, with a final collection on the last day of the study.
Cross-linked N-telopeptide levels were determined using the DiaSorin (Stillwater, MN) assay for the quantitative determination of carboxyterminal cross-linked telopeptide of type I collagen (ICTP) in human serum by equilibrium radioimmunoassay (RIA). […] The bound tracer in the pellet was counted with a gamma counter. […]

| SMILES | inhibition at 1 µM (ETA Receptor) [%] | IC50 [1] [µM] | also measured |
| --- | --- | --- | --- |
| CCCC(CCC)N(C(=O)CN1CC(c2cc(OC)c3c(c2)OCO3)C(C(=O)O)C1CCC1OCCO1)c1ccc(F)c(C)c1 (stereo not shown) [compound 513] | 98 | 8.8 | – |
| CCCCN(CCCC)C(=O)CN1C[C@H](c2ccc3c(c2)CCO3)[C@@H](C(=O)O)[C@@H]1CC(C)(C)CCC [compound 515] | 99.1 | > 62 | – |
| CCCCN(CCCC)C(=O)CN1CC(c2cc(OC)c3c(c2)OCO3)C(C(=O)O)C1CCC1OCCO1 (stereo not shown) [compound 509] | 100 | 30 | – |
| CCCCN(CCCC)C(=O)CN1CC(c2ccc3c(c2)OCO3)C(C(=O)O)C1CC(C)(C)CCC (stereo not shown) [compound 503] | 97 | 50 | – |
| CCCCN(CCCC)C(=O)CN1CC(c2cc(OC)c3c(c2)OCO3)C(C(=O)O)C1CC(C)(C)C1OCCO1 (stereo not shown) [compound 516] | 99.7 | 29 | – |
| CCCCN(CCCC)C(=O)CN1CC(c2ccc3c(c2)OCO3)C(C(=O)O)C1CCC1CCCCO1 (stereo not shown) [compound 505] | 95.8 | 60 | – |
| CCCCN(CCCC)C(=O)CN1CC(c2ccc3c(c2)OCO3)C(C(=O)O)C1CCC1OCCO1 (stereo not shown) [compound 504] | 97.1 | > 100 | – |
| CCCCCN(CCCC)C(=O)CN1C[C@H](c2ccc3c(c2)OCO3)[C@@H](C(=O)O)[C@@H]1c1ccc(OC)cc1 [ABT-627] | – | – | Crosslinked N-telopeptide levels (AUC, FIG. 4) [3]: Crosslinked N-telopeptide levels decreased |
| CCCCN(CCCC)C(=O)CN1C[C@H](c2ccc3c(c2)OCO3)[C@@H](C(=O)O)[C@@H]1CC(C)(C)CCC [compound 537] | 97.2 | 5.9 | – |
| CCCCN(CCCC)C(=O)CN1CC(c2ccc3c(c2)OCO3)C(C(=O)O)C1CC(C)(C)C1OCCO1 (stereo not shown) [compound 507] | 99.3 | > 100 | – |
| CCCCN(CCCC)C(=O)CN1CC(c2ccc3c(c2)OCO3)C(C(=O)O)C1CC(C)(C)C=C(C)C (stereo not shown) [compound 506] | 99.7 | > 100 | – |

More lines, main results first:

| inhibition at 1 µM (ETA Receptor) [%] | IC50 [1] [µM] | SMILES | also measured |
| --- | --- | --- | --- |
| 94.1 | 30 | CCCCN(CCCC)C(=O)CN1CC(c2ccc3c(c2)OCO3)C(C(=O)O)C1CCc1ccccc1OC (stereo not shown) [compound 517] | – |
| 99.8 | – | CCCCN(C(=O)CN1CC(c2ccc3c(c2)OCO3)C(C(=O)O)C1c1ccc(OC)cc1)c1cccnc1 (stereo not shown) [compound 531] | solubility ([2]; pH 5.1, about 25° C.): > 3300 µg/mL; solubility ([2]; pH 6.5, about 25° C.): > 3400 µg/mL; solubility ([2]; pH 7.1, about 25° C.): 3540 µg/mL (≈ 6.66 mM); solubility ([2]; pH 7.6, about 25° C.): 3550 µg/mL (≈ 6.68 mM) |
| 99 | 0.36 | CCCCN(CCCO)C(=O)CN1CC(c2ccc3c(c2)OCO3)C(C(=O)O)C1c1ccc(OC)cc1 (stereo not shown) [compound 523] | – |
| 99.2 | 1.7 | CCCON(CCC)C(=O)CN1CC(c2ccc3c(c2)OCO3)C(C(=O)O)C1c1ccc(OC)cc1 (stereo not shown) [compound 524] | – |
| 100 | 35 | CCCCN(CCCC)C(=O)CN1CC(c2ccc3c(c2)OCO3)C(C(=O)O)C1COc1ccccc1OC (stereo not shown) [compound 510] | – |
